Earlier results in US20070142395A1, “Treatment of sexual dysfunction with 1-[3-[4-(3-chlorophenyl)-1-piperazinyl]propyl]-5-methoxy-3,4-dihydro-2(1H)-quinolone or salt thereof” (Vela Pharmaceuticals, Inc., priority 2005, published 2007).

Conditions: SSRI/SNRI antidepressant therapy; Montejo et al. 2001; cited from earlier work
In the case of `CN(C)CCCC1(c2ccc(F)cc2)OCc2cc(C#N)ccc21` (centres unmarked) [citalopram], the “incidence of sexual dysfunction as side effect” value (from here on “incidence of sexual dysfunction”) is given as 72.7%. For `CNCCC(Oc1ccc(C(F)(F)F)cc1)c1ccccc1` (centres unmarked) [fluoxetine], the “incidence of sexual dysfunction” value is given as 57.7%. For `Fc1ccc([C@@H]2CCNC[C@H]2COc2ccc3c(c2)OCO3)cc1` [paroxetine], the “incidence of sexual dysfunction” value is given as 70.7%. For `CN[C@H]1CC[C@@H](c2ccc(Cl)c(Cl)c2)c2ccccc21` [sertraline], the “incidence of sexual dysfunction” value is listed as 62.9%. For `COc1ccc(C(CN(C)C)C2(O)CCCCC2)cc1` (centres unmarked) [venlafaxine], the “incidence of sexual dysfunction” value is given as 67.3%.
